Read-outs that look alike come from different tables or passages of the source.
Legend:
[1] = test system: P. falciparum 3D7 parasites; experiment: P. falciparum growth inhibition assay, 1-cycle (72 h treatment), SYBR DNA staining (library screen at 2 μg/mL and dose-response); format: cell-based, Plasmodium falciparum; conditions: for activity at 2 µg/mL: Plasmodium falciparum
[2] = test system: P. falciparum 3D7 parasites; experiment: P. falciparum growth inhibition assay, 2-cycle (120 h treatment), delayed-death screen and dose-response; format: cell-based, Plasmodium falciparum; conditions: for activity at 2 µg/mL: Plasmodium falciparum
[3] = test system: T. gondii RH strain (RH-Tub-eYFP) tachyzoites; experiment: microbe, parasite or virus in culture; format: cell-based, Toxoplasma gondii; conditions: 72 h, 72 h; for percent parasite growth at 2 µg/mL: Toxoplasma gondii
[4] = library screen at 2 μg/mL, % growth, replicate 1, read-out: Tg_72h_%Growth_Rep1
[5] = library screen at 2 μg/mL, % growth, replicate 2, read-out: Tg_72h_%Growth_Rep2
[6] = P. falciparum, 72 h, screen at 2 μg/mL, replicate 1
[7] = P. falciparum, 72 h, screen at 2 μg/mL, replicate 2
[8] = P. falciparum, 120 h, screen at 2 μg/mL, replicate 1
[9] = P. falciparum, 120 h, screen at 2 μg/mL, replicate 2
[10] = T. gondii, screen at 2 μg/mL, replicate 1
[11] = T. gondii, screen at 2 μg/mL, replicate 2
[12] = 3D7, P. falciparum, 72 h, screen at 2 μg/mL, replicate 1, read-out: Pf_72h_%Growth_Rep1
[13] = 3D7, P. falciparum, 72 h, screen at 2 μg/mL, replicate 2, read-out: Pf_72h_%Growth_Rep2
[14] = 3D7, P. falciparum, 120 h, screen at 2 μg/mL, replicate 1, read-out: Pf_120h_%Growth_Rep1
[15] = 3D7, P. falciparum, 120 h, screen at 2 μg/mL, replicate 2, read-out: Pf_120h_%Growth_Rep2
[16] = T. gondii, screen at 2 μg/mL, replicate 1, read-out: Tg_72h_%Growth_Rep1
[17] = T. gondii, screen at 2 μg/mL, replicate 2, read-out: Tg_72h_%Growth_Rep2

C=CC(C)(C)[C@@]12C[C@H]3C(=O)N4[C@@H](C[C@@]5(C(C)(C)C=C)c6ccccc6N[C@@H]45)C(=O)N3[C@@H]1Nc1ccccc12 [Amauromine]
activity at 2 µg/mL ([1]; 3D7, 72 h, library screen at 2 μg/mL, 72 h, % growth, replicate 1, read-out: Pf_72h_%Growth_Rep1): 3.52%
activity at 2 µg/mL ([1]; 3D7, 72 h, library screen at 2 μg/mL, 72 h, % growth, replicate 2, read-out: Pf_72h_%Growth_Rep2): 3.82%
activity at 2 µg/mL ([2]; 3D7, 120 h, library screen at 2 μg/mL, 120 h, % growth, replicate 1, read-out: Pf_120h_%Growth_Rep1): 7.96%
activity at 2 µg/mL ([2]; 3D7, 120 h, library screen at 2 μg/mL, 120 h, % growth, replicate 2, read-out: Pf_120h_%Growth_Rep2): 0.67%
percent parasite growth at 2 µg/mL [3, 4]: 139%
percent parasite growth at 2 µg/mL [3, 5]: 104%

CC[C@H]1C[C@@H]2CC[C@@H](O2)[C@@H](C)C(=O)O[C@H](CC)C[C@H]2CC[C@H](O2)[C@H](C)C(=O)O[C@@H](CC)C[C@@H]2CC[C@@H](O2)[C@@H](C)C(=O)O[C@H](CC)C[C@H]2CC[C@H](O2)[C@H](C)C(=O)O1 [Tetranactin]
Pf_72h_%Growth_Rep1 [1, 6]: 6.09%
Pf_72h_%Growth_Rep2 [1, 7]: -9.23%
Pf_120h_%Growth_Rep1 [2, 8]: 29.81%
Pf_120h_%Growth_Rep2 [2, 9]: 14.39%
Tg_72h_%Growth_Rep1 [3, 10]: 5.41%
Tg_72h_%Growth_Rep2 [3, 11]: 2.84%

COC(=O)C1=C2Nc3ccccc3[C@@]23CCN2C[C@]4(C[C@@H]5C[C@]67CCC[C@H]6CCN6CC[C@@]8(c9cccc(OC)c9N(C4)[C@@]58O)[C@@H]67)[C@@H]4OCC[C@]4(C1)[C@H]23 [Vobtusine]
activity at 2 µg/mL [1, 12]: 81.5%
activity at 2 µg/mL [1, 13]: 87%
activity at 2 µg/mL [2, 14]: 166%
activity at 2 µg/mL [2, 15]: 96.3%
percent parasite growth at 2 µg/mL [3, 16]: 86.1%
percent parasite growth at 2 µg/mL [3, 17]: 105%

Cn1ncnc2c(=O)n(C)c(=O)nc1-2 [Toxoflavin]
Pf_72h_%Growth_Rep1 [1, 6]: 6.97%
Pf_72h_%Growth_Rep2 [1, 7]: -1.92%
Pf_120h_%Growth_Rep1 [2, 8]: 16.11%
Pf_120h_%Growth_Rep2 [2, 9]: 20.32%
Tg_72h_%Growth_Rep1 [3, 10]: 3.96%
Tg_72h_%Growth_Rep2 [3, 11]: 6.88%

CC(=O)c1c(O)c(C)c(O)c2c1OC1=CC(=O)C(C(C)=O)C(=O)C12C (stereo not drawn) [Usnic acid]
activity at 2 µg/mL [1, 12]: 82.8%
activity at 2 µg/mL [1, 13]: 126%
activity at 2 µg/mL [2, 14]: 101%
activity at 2 µg/mL [2, 15]: 102%
percent parasite growth at 2 µg/mL [3, 16]: 115%
percent parasite growth at 2 µg/mL [3, 17]: 87.6%

COC(=O)c1cc(O)cc(OC)c1C(=O)c1c(O)cc(C)cc1O [Sulochrin]
activity at 2 µg/mL ([1]; 3D7, P. falciparum, 72 h, parasite screen 2 μg/mL, % growth, replicate 1, read-out: Pf_72h_%Growth_Rep1): 88.9%
activity at 2 µg/mL ([1]; 3D7, P. falciparum, 72 h, parasite screen 2 μg/mL, % growth, replicate 2, read-out: Pf_72h_%Growth_Rep2): 90.8%
activity at 2 µg/mL ([2]; 3D7, P. falciparum, 120 h, parasite screen 2 μg/mL, % growth, replicate 1, read-out: Pf_120h_%Growth_Rep1): 93.2%
activity at 2 µg/mL ([2]; 3D7, P. falciparum, 120 h, parasite screen 2 μg/mL, % growth, replicate 2, read-out: Pf_120h_%Growth_Rep2): 96.4%
percent parasite growth at 2 µg/mL ([3]; T. gondii, parasite screen 2 μg/mL, % growth, replicate 1, read-out: Tg_72h_%Growth_Rep1): 153%
percent parasite growth at 2 µg/mL ([3]; T. gondii, parasite screen 2 μg/mL, % growth, replicate 2, read-out: Tg_72h_%Growth_Rep2): 100%

O=c1c(-c2ccc(O)cc2)coc2cc(O)cc(O)c12 [Genistein]
activity at 2 µg/mL ([1]; 3D7, library screen at 2 μg/mL, 72 h, % growth, replicate 1, read-out: Pf_72h_%Growth_Rep1): 88.5%
activity at 2 µg/mL ([1]; 3D7, library screen at 2 μg/mL, 72 h, % growth, replicate 2, read-out: Pf_72h_%Growth_Rep2): 42.1%
activity at 2 µg/mL ([2]; 3D7, library screen at 2 μg/mL, 120 h, % growth, replicate 1, read-out: Pf_120h_%Growth_Rep1): 89.5%
activity at 2 µg/mL ([2]; 3D7, library screen at 2 μg/mL, 120 h, % growth, replicate 2, read-out: Pf_120h_%Growth_Rep2): 111%
percent parasite growth at 2 µg/mL [3, 4]: 80.3%
percent parasite growth at 2 µg/mL [3, 5]: 72.4%

CCCCC(C)C=C(C)C=C(C)C(=O)NC1=CC(O)(C=CC=CC=CC(=O)NC2=C(O)CCC2=O)C2OC2C1=O (stereo not drawn) [BIA-M1905]
Pf_72h_%Growth_Rep1 ([1]; P. falciparum 3D7, 72 h, library screen at 2 μg/mL, % growth, replicate 1): 81.84%
Pf_72h_%Growth_Rep2 ([1]; P. falciparum 3D7, 72 h, library screen at 2 μg/mL, % growth, replicate 2): 57.54%
Pf_120h_%Growth_Rep1 ([2]; P. falciparum 3D7, 120 h, library screen at 2 μg/mL, % growth, replicate 1): 83.56%
Pf_120h_%Growth_Rep2 ([2]; P. falciparum 3D7, 120 h, library screen at 2 μg/mL, % growth, replicate 2): 90.34%
Tg_72h_%Growth_Rep1 ([3]; T. gondii RH, library screen at 2 μg/mL, % growth, replicate 1): 110.20%
Tg_72h_%Growth_Rep2 ([3]; T. gondii RH, library screen at 2 μg/mL, % growth, replicate 2): 85.96%

C=C1CC[C@H]2C(C)(C)CCC[C@]2(C)[C@H]1C[C@@]12C[C@H]3C(=O)N4CCC=C4C(=O)N3[C@@H]1Nc1ccccc12 [Drimentine B]
Pf_72h_%Growth_Rep1 ([1]; library screen at 2 μg/mL, 72 h, % growth, replicate 1): 74.87%
Pf_72h_%Growth_Rep2 ([1]; library screen at 2 μg/mL, 72 h, % growth, replicate 2): 73.00%
Pf_120h_%Growth_Rep1 ([2]; library screen at 2 μg/mL, 120 h, % growth, replicate 1): 84.09%
Pf_120h_%Growth_Rep2 ([2]; library screen at 2 μg/mL, 120 h, % growth, replicate 2): 80.10%
Tg_72h_%Growth_Rep1 ([3]; library screen at 2 μg/mL, % growth, replicate 1): 108.85%
Tg_72h_%Growth_Rep2 ([3]; library screen at 2 μg/mL, % growth, replicate 2): 84.36%
